Assay: Pharmacokinetic evaluation in mice, single intragastric administration
Type: in vivo, CD-1 mice (male)
Conditions: 300 mpk, male CD-1 mice, plasma
Method: Experimental Purposes: To Test the Pharmacokinetics of the Compound in Mice
CD-1 mice (male), vehicle (0.5% (w/v) methylcellulose 0.5% (v/v) Tween 80 aqueous solution), trifluoroacetate salt of compound 0027.
Animals in groups 1 and 2 were given 5 mg/mL and 30 mg/mL compound by single intragastric administration, respectively, with a dose volume of 10 mL/kg.
The animals were weighed before administration, and the administration volume was calculated according to the body weight.
Whole blood samples (30 μL) were collected at specified times (0.25, 0.5, 1, 2, 4, 6, 8, 24 hours) by saphenous vein collection and the actual time of collection was recorded in the test record. The acceptable error for the collection time points was ±1 minute for time points within 1 hour of administration and ±5% of the theoretical time for other time points.
All blood samples were immediately transferred to labeled commercial centrifuge tubes containing K2-EDTA. After blood samples were collected, the blood samples were centrifugated at 4° C. and 3200 rpm for 10 minutes, and the supernatant plasma was aspirated, and then quickly put into dry ice at a temperature of −20° C. or lower for LC-MS/MS analysis. And the pharmacokinetic parameters were calculated, and experimental result: See Table 5.

COc1cc(OC)c(Cl)c(-c2nc(-c3nc(-c4cn(C)nc4C)cnc3N)cn(C)c2=O)c1
Tlast: 24.0 h

Source: patent publication US11603366B2, “Crystalline form and B crystalline form of pyrazine-2(1H)-ketone compound and preparation method thereof” (ZHANGZHOU PIEN TZE HUANG PHARMACEUTICAL CO., LTD., priority 2019, dated 2023)
